{"source": "paper PMC5218480", "about": "(PLoS ONE, 2017)", "test_system": "MV-4-11 cells", "assay": "Gene expression microarray analysis (Affymetrix PrimeView) and GSEA", "format": "cell-based, human", "parameters": "RFU PODN (11730768_x_at) / Fold change /veh PODN (11730768_x_at) / RFU LINC00158 (11744669_a_at) / Fold change /veh LINC00158 (11744669_a_at) / RFU DUSP10 (11751237_a_at) / Fold change /veh DUSP10 (11751237_a_at) / RFU ID3 (11757404_x_at) / Fold change /veh ID3 (11757404_x_at) / RFU PLEKHG5 (11737974_s_at) / Fold change /veh PLEKHG5 (11737974_s_at) / RFU LRRC4B (11730491_at) / Fold change /veh LRRC4B (11730491_at) / RFU GIMAP4 (11747438_a_at) / Fold change /veh GIMAP4 (11747438_a_at) / RFU KRT8 (11758183_x_at) / Fold change /veh KRT8 (11758183_x_at) / RFU CNN1 (11734310_a_at) / Fold change /veh CNN1 (11734310_a_at) / RFU VPS37D (11726825_at) / Fold change /veh VPS37D (11726825_at) / RFU C10orf10 (11716522_x_at) / Fold change /veh C10orf10 (11716522_x_at) / RFU KIR2DL2 /// KIR2DL4 /// KIR2DL5A /// KIR2DL5B /// KIR2DS1 /// KIR2DS2 /// KIR2DS3 /// KIR2DS4 /// KIR3DL3 /// KIR3DL3 /// KIR3DS1 (11738374_at) / Fold change /veh KIR2DL2 /// KIR2DL4 /// KIR2DL5A /// KIR2DL5B /// KIR2DS1 /// KIR2DS2 /// KIR2DS3 /// KIR2DS4 /// KIR3DL3 /// KIR3DL3 /// KIR3DS1 (11738374_at) / RFU C1QL1 (11718748_at) / Fold change /veh C1QL1 (11718748_at) / RFU TMPRSS4 (11747572_a_at) / Fold change /veh TMPRSS4 (11747572_a_at) / RFU HAMP (11756126_x_at) / Fold change /veh HAMP (11756126_x_at) / RFU RNFT2 (11725882_a_at) / Fold change /veh RNFT2 (11725882_a_at) / RFU NR4A2 (11747474_a_at) / Fold change /veh NR4A2 (11747474_a_at) / RFU ABCC12 (11746883_a_at) / Fold change /veh ABCC12 (11746883_a_at) / RFU TMEM136 (11760407_x_at) / Fold change /veh TMEM136 (11760407_x_at) / RFU CLDN22 /// WWC2 (11732394_at) / Fold change /veh CLDN22 /// WWC2 (11732394_at) / RFU HLA-DPB1 (11760878_x_at) / Fold change /veh HLA-DPB1 (11760878_x_at) / RFU SPINT1 (11716480_a_at) / Fold change /veh SPINT1 (11716480_a_at) / RFU GAP43 (11754022_s_at) / Fold change /veh GAP43 (11754022_s_at) / RFU A4GNT (11735810_at) / Fold change /veh A4GNT (11735810_at) / RFU PRB3 (11715151_x_at) / Fold change /veh PRB3 (11715151_x_at) / RFU TUBB4B (11761932_at) / Fold change /veh TUBB4B (11761932_at) / RFU CAPN14 (11732068_a_at) / Fold change /veh CAPN14 (11732068_a_at) / RFU TMCC2 (11721928_a_at) / Fold change /veh TMCC2 (11721928_a_at) / RFU IRGQ (11745062_a_at) / Fold change /veh IRGQ (11745062_a_at) / RFU FAM174B (11720279_a_at) / Fold change /veh FAM174B (11720279_a_at) / RFU TMPRSS4 (11748680_a_at) / Fold change /veh TMPRSS4 (11748680_a_at) / RFU FAM212B (11763350_a_at) / Fold change /veh FAM212B (11763350_a_at) / RFU PLEKHG5 (11743358_a_at) / Fold change /veh PLEKHG5 (11743358_a_at) / RFU ZSCAN30 (11745921_a_at) / Fold change /veh ZSCAN30 (11745921_a_at) / RFU CMKLR1 (11741424_a_at) / Fold change /veh CMKLR1 (11741424_a_at) / RFU LOC101060620 /// MAPK8IP1 (11723275_at) / Fold change /veh LOC101060620 /// MAPK8IP1 (11723275_at) / RFU SPTSSB (11747773_x_at) / Fold change /veh SPTSSB (11747773_x_at) / RFU PRSS12 (11739890_at) / Fold change /veh PRSS12 (11739890_at) / RFU BIN1 (11741810_x_at) / Fold change /veh BIN1 (11741810_x_at) / RFU WNT11 (11732464_a_at) / Fold change /veh WNT11 (11732464_a_at) / RFU C10orf10 (11716521_a_at) / Fold change /veh C10orf10 (11716521_a_at) / RFU C5orf56 (11738089_at) / Fold change /veh C5orf56 (11738089_at) / RFU CYB561 (11721691_x_at) / Fold change /veh CYB561 (11721691_x_at) / RFU ANKRD19P (11752326_a_at) / Fold change /veh ANKRD19P (11752326_a_at) / RFU OR2T12 /// OR2T33 /// OR2T8 (11738714_s_at) / Fold change /veh OR2T12 /// OR2T33 /// OR2T8 (11738714_s_at) / RFU VCAN (11748164_a_at) / Fold change /veh VCAN (11748164_a_at) / RFU JSRP1 (11732532_at) / Fold change /veh JSRP1 (11732532_at) / RFU KRTAP10-11 (11738290_x_at) / Fold change /veh KRTAP10-11 (11738290_x_at) / RFU MYO3A (11730013_a_at) / Fold change /veh MYO3A (11730013_a_at) / RFU EBF3 (11725865_a_at) / Fold change /veh EBF3 (11725865_a_at) / RFU CAMK2N1 (11719241_x_at) / Fold change /veh CAMK2N1 (11719241_x_at) / RFU C5orf56 (11738088_a_at) / Fold change /veh C5orf56 (11738088_a_at) / RFU OLFML3 (11715873_a_at) / Fold change /veh OLFML3 (11715873_a_at) / RFU LOC100653217 /// NTM (11731650_a_at) / Fold change /veh LOC100653217 /// NTM (11731650_a_at) / RFU MAPK11 (11762145_a_at) / Fold change /veh MAPK11 (11762145_a_at) / RFU FIZ1 (11724087_x_at) / Fold change /veh FIZ1 (11724087_x_at) / RFU OASL (11726364_x_at) / Fold change /veh OASL (11726364_x_at) / RFU SOX15 (11748057_x_at) / Fold change /veh SOX15 (11748057_x_at) / RFU CD79A (11719716_a_at) / Fold change /veh CD79A (11719716_a_at) / RFU HIST1H1D (11736915_at) / Fold change /veh HIST1H1D (11736915_at) / RFU CASKIN2 (11723855_a_at) / Fold change /veh CASKIN2 (11723855_a_at) / RFU LOC730098 (11760151_x_at) / Fold change /veh LOC730098 (11760151_x_at) / RFU OR4N2 (11742367_at) / Fold change /veh OR4N2 (11742367_at) / RFU PRRT2 (11749266_a_at) / Fold change /veh PRRT2 (11749266_a_at) / RFU SNX32 (11753110_a_at) / Fold change /veh SNX32 (11753110_a_at) / RFU CDHR5 (11726645_a_at) / Fold change /veh CDHR5 (11726645_a_at) / RFU RCAN1 (11760418_a_at) / Fold change /veh RCAN1 (11760418_a_at) / RFU FAM167A (11723789_a_at) / Fold change /veh FAM167A (11723789_a_at) / RFU FAM26E (11764081_at) / Fold change /veh FAM26E (11764081_at) / RFU ISYNA1 (11749810_s_at) / Fold change /veh ISYNA1 (11749810_s_at) / RFU ACY1 (11761880_at) / Fold change /veh ACY1 (11761880_at) / RFU 11764098_at / Fold change /veh 11764098_at / RFU SAMD14 (11745864_x_at) / Fold change /veh SAMD14 (11745864_x_at) / RFU NPB (11741838_a_at) / Fold change /veh NPB (11741838_a_at) / RFU TMPRSS6 (11731388_a_at) / Fold change /veh TMPRSS6 (11731388_a_at) / RFU KRTAP10-2 (11738614_at) / Fold change /veh KRTAP10-2 (11738614_at) / RFU ARHGAP8 /// PRR5-ARHGAP8 (11727945_x_at) / Fold change /veh ARHGAP8 /// PRR5-ARHGAP8 (11727945_x_at) / RFU KRTAP5-7 /// NADSYN1 (11734609_at) / Fold change /veh KRTAP5-7 /// NADSYN1 (11734609_at) / RFU RASL12 (11751679_a_at) / Fold change /veh RASL12 (11751679_a_at) / RFU CDKN2B (11736163_a_at) / Fold change /veh CDKN2B (11736163_a_at) / RFU PRF1 (11729649_at) / Fold change /veh PRF1 (11729649_at) / RFU, ZNF638 /// ZNF638-IT1 / Fold change vs veh, ZNF638 /// ZNF638-IT1 / RFU, PANK3 / Fold change vs veh, PANK3 / RFU, SH3YL1 / Fold change vs veh, SH3YL1 / RFU, ZEB2 / Fold change vs veh, ZEB2 / RFU, NRIP1 / Fold change vs veh, NRIP1 / RFU, PTTG1IP / Fold change vs veh, PTTG1IP / RFU, CAPN2 / Fold change vs veh, CAPN2 / RFU, MED14 / Fold change vs veh, MED14 / RFU, SNORA58 / Fold change vs veh, SNORA58 / RFU, C1orf63 / Fold change vs veh, C1orf63 / RFU, LRRFIP1 / Fold change vs veh, LRRFIP1 / RFU, NDUFAF7 / Fold change vs veh, NDUFAF7 / RFU, SLC12A2 / Fold change vs veh, SLC12A2 / RFU, IBTK / Fold change vs veh, IBTK / RFU, ESF1 / Fold change vs veh, ESF1 / Fold change vs veh, TMEM50B / RFU, TAOK1 / Fold change vs veh, TAOK1 / RFU, ACBD3 / Fold change vs veh, ACBD3 / RFU, TMA16 / Fold change vs veh, TMA16 / RFU, RWDD3 / Fold change vs veh, RWDD3 / RFU, BCAT1 / Fold change vs veh, BCAT1 / RFU, EDEM3 / Fold change vs veh, EDEM3 / RFU, TMEM33 / Fold change vs veh, TMEM33 / RFU, WDR75 / Fold change vs veh, WDR75 / RFU, AHCTF1 / Fold change vs veh, AHCTF1 / RFU, TFRC / Fold change vs veh, TFRC / RFU, ZDHHC17 / Fold change vs veh, ZDHHC17 / RFU, NOM1 / Fold change vs veh, NOM1 / RFU, ARL8B / Fold change vs veh, ARL8B / RFU, ZBTB11 / Fold change vs veh, ZBTB11 / RFU, TAMM41 / Fold change vs veh, TAMM41 / RFU, KIAA1704 /// LOC100996395 / Fold change vs veh, KIAA1704 /// LOC100996395 / RFU, ING1 / Fold change vs veh, ING1 / RFU, TRMT61B / Fold change vs veh, TRMT61B / RFU, FUBP3 / Fold change vs veh, FUBP3 / RFU, TP53 / Fold change vs veh, TP53 / RFU, TNKS2 / Fold change vs veh, TNKS2 / RFU, ZFP14 / Fold change vs veh, ZFP14 / RFU, ACTR2 / Fold change vs veh, ACTR2 / RFU, PPP3R1 / Fold change vs veh, PPP3R1 / RFU, PIK3R1 / Fold change vs veh, PIK3R1 / RFU, HNRNPA1 / Fold change vs veh, HNRNPA1 / RFU, RNF170 / Fold change vs veh, RNF170 / RFU, ZNF28 / Fold change vs veh, ZNF28 / RFU, RNGTT / Fold change vs veh, RNGTT / RFU, OGT / Fold change vs veh, OGT / RFU, BRD1 / Fold change vs veh, BRD1 / RFU, MARS / Fold change vs veh, MARS / RFU, ZNF655 / Fold change vs veh, ZNF655 / RFU, FAHD1 / Fold change vs veh, FAHD1 / RFU, BDP1 / Fold change vs veh, BDP1 / RFU, LRRCC1 / Fold change vs veh, LRRCC1 / RFU, ARID1A / Fold change vs veh, ARID1A / RFU, ZNF146 / Fold change vs veh, ZNF146 / RFU, ZNF330 / Fold change vs veh, ZNF330 / RFU, GPN3 / Fold change vs veh, GPN3 / RFU, C9orf123 / Fold change vs veh, C9orf123 / RFU, N4BP2L2 / Fold change vs veh, N4BP2L2 / RFU, ARFIP1 / Fold change vs veh, ARFIP1 / RFU, FAM179B / Fold change vs veh, FAM179B / RFU, BCL10 / Fold change vs veh, BCL10 / RFU, UHRF1BP1L / Fold change vs veh, UHRF1BP1L / RFU, BET1 / Fold change vs veh, BET1 / RFU, CNOT2 / Fold change vs veh, CNOT2 / RFU, ZNF268 / Fold change vs veh, ZNF268 / Fold change vs veh, ZNF507 / RFU, DGCR2 / Fold change vs veh, DGCR2 / RFU, WDSUB1 / Fold change vs veh, WDSUB1 / Fold change vs veh, HSP90B1 /// MIR3652 / RFU, ADSS / Fold change vs veh, ADSS / RFU, GK / Fold change vs veh, GK / RFU, ZNF148 / Fold change vs veh, ZNF148 / RFU, TAF9 / Fold change vs veh, TAF9 / RFU, SLC1A5 / Fold change vs veh, SLC1A5 / RFU, SLMO2 / Fold change vs veh, SLMO2 / RFU, ABCC4 / Fold change vs veh, ABCC4 / RFU, LOC101060439 /// RAP1B / Fold change vs veh, LOC101060439 /// RAP1B / RFU, RFX7 / Fold change vs veh, RFX7 / RFU, GTPBP10 / Fold change vs veh, GTPBP10 / RFU, CNEP1R1 / Fold change vs veh, CNEP1R1 / RFU, BIVM-ERCC5 /// ERCC5 / Fold change vs veh, BIVM-ERCC5 /// ERCC5 / RFU, ILF3 / Fold change vs veh, ILF3 / RFU 11762660_at / Fold change /veh 11762660_at / RFU VCAN (11757783_s_at) / Fold change /veh VCAN (11757783_s_at) / RFU DDX43 (11728927_at) / Fold change /veh DDX43 (11728927_at) / RFU KRT8 (11758188_x_at) / Fold change /veh KRT8 (11758188_x_at) / RFU NKD1 (11759106_at) / Fold change /veh NKD1 (11759106_at) / RFU SRD5A1 (11742802_a_at) / Fold change /veh SRD5A1 (11742802_a_at) / RFU TPSAB1 /// TPSB2 (11721975_s_at) / Fold change /veh TPSAB1 /// TPSB2 (11721975_s_at) / RFU GSTM3 (11746129_a_at) / Fold change /veh GSTM3 (11746129_a_at) / RFU IL23R (11737362_x_at) / Fold change /veh IL23R (11737362_x_at) / RFU TMEM51 (11727254_a_at) / Fold change /veh TMEM51 (11727254_a_at) / RFU PIWIL2 (11732686_x_at) / Fold change /veh PIWIL2 (11732686_x_at) / RFU ORM1 (11744905_x_at) / Fold change /veh ORM1 (11744905_x_at) / RFU CCDC152 (11743942_at) / Fold change /veh CCDC152 (11743942_at) / RFU ECM1 (11717891_a_at) / Fold change /veh ECM1 (11717891_a_at) / RFU IL23R (11748794_a_at) / Fold change /veh IL23R (11748794_a_at) / RFU TNFAIP8L3 (11732012_x_at) / Fold change /veh TNFAIP8L3 (11732012_x_at) / RFU MBOAT4 (11741988_at) / Fold change /veh MBOAT4 (11741988_at) / RFU 11764193_at / Fold change /veh 11764193_at / RFU TMEM53 (11763286_at) / Fold change /veh TMEM53 (11763286_at) / RFU MAGEB2 (11727129_at) / Fold change /veh MAGEB2 (11727129_at) / RFU TMEM200A (11744735_a_at) / Fold change /veh TMEM200A (11744735_a_at) / RFU CCDC152 (11751479_a_at) / Fold change /veh CCDC152 (11751479_a_at) / RFU FAM211A (11726209_a_at) / Fold change /veh FAM211A (11726209_a_at) / RFU RGS16 (11746705_a_at) / Fold change /veh RGS16 (11746705_a_at) / RFU VCAN (11755009_s_at) / Fold change /veh VCAN (11755009_s_at) / RFU RHOB (11743442_s_at) / Fold change /veh RHOB (11743442_s_at) / RFU RGS16 (11720943_a_at) / Fold change /veh RGS16 (11720943_a_at) / RFU RGS16 (11720944_at) / Fold change /veh RGS16 (11720944_at) / RFU, VPS4B / Fold change vs veh, VPS4B / RFU, CREB1 / Fold change vs veh, CREB1 / RFU, DNAJC13 / Fold change vs veh, DNAJC13 / RFU, GNAQ / Fold change vs veh, GNAQ / RFU, CDK5R1 / Fold change vs veh, CDK5R1 / RFU, ZRANB3 / Fold change vs veh, ZRANB3 / RFU, CUL4A / Fold change vs veh, CUL4A / RFU, CCNY / Fold change vs veh, CCNY / RFU, UFL1 / Fold change vs veh, UFL1 / RFU, COG3 / Fold change vs veh, COG3 / RFU, DIAPH2 / Fold change vs veh, DIAPH2 / RFU, SKA2 / Fold change vs veh, SKA2 / RFU, AFF3 / Fold change vs veh, AFF3 / RFU, LMF1 / Fold change vs veh, LMF1 / RFU, IPO11 / Fold change vs veh, IPO11 / RFU, DFFB / Fold change vs veh, DFFB / RFU, FOXP1 / Fold change vs veh, FOXP1 / RFU, CARD8 / Fold change vs veh, CARD8 / RFU, STRN3 / Fold change vs veh, STRN3 / RFU, ADK / Fold change vs veh, ADK / RFU, RASSF2 / Fold change vs veh, RASSF2 / RFU, WIPF1 / Fold change vs veh, WIPF1 / RFU, LARP1B / Fold change vs veh, LARP1B / RFU, RASA1 / Fold change vs veh, RASA1 / RFU, RB1 / Fold change vs veh, RB1 / RFU, PPFIA1 / Fold change vs veh, PPFIA1 / RFU, MAT2A / Fold change vs veh, MAT2A / RFU, CCT5 / Fold change vs veh, CCT5 / RFU, WDR92 / Fold change vs veh, WDR92 / RFU, CUX1 / Fold change vs veh, CUX1 / RFU, TTC7A / Fold change vs veh, TTC7A / RFU, TMEM135 / Fold change vs veh, TMEM135 / RFU, DEPTOR / Fold change vs veh, DEPTOR / RFU, CPM / Fold change vs veh, CPM / RFU, DNAJB6 / Fold change vs veh, DNAJB6 / RFU, CACNA2D3 / Fold change vs veh, CACNA2D3 / RFU, DTX4 / Fold change vs veh, DTX4 / RFU, TFCP2 / Fold change vs veh, TFCP2 / RFU, GMCL1 /// GMCL1P1 / Fold change vs veh, GMCL1 /// GMCL1P1 / RFU, AEBP2 / Fold change vs veh, AEBP2 / RFU, SNHG1 /// SNORD22 /// SNORD25 /// SNORD26 /// SNORD27 /// SNORD28 /// SNORD29 /// SNORD31 / Fold change vs veh, SNHG1 /// SNORD22 /// SNORD25 /// SNORD26 /// SNORD27 /// SNORD28 /// SNORD29 /// SNORD31 / Fold change (Aza/veh), C12orf56 (ProbeSet 11735607_a_at) / Fold change (ACY-1035/veh), C12orf56 (ProbeSet 11735607_a_at) / Fold change (Aza/veh), FGFR1OP (ProbeSet 11751329_s_at) / Fold change (ACY-1035/veh), FGFR1OP (ProbeSet 11751329_s_at) / Fold change (Aza/veh), VPS36 (ProbeSet 11739960_a_at) / Fold change (ACY-1035/veh), VPS36 (ProbeSet 11739960_a_at) / RFU SYPL1 (11715823_x_at) / Fold change /veh SYPL1 (11715823_x_at) / RFU IGFBP7 (11715501_s_at) / Fold change /veh IGFBP7 (11715501_s_at) / RFU REEP3 (11722064_at) / Fold change /veh REEP3 (11722064_at) / RFU IGLL1 (11728026_x_at) / Fold change /veh IGLL1 (11728026_x_at): dose or concentration left out as unconfirmed", "details": "ProbeSet 11731610_x_at; LIST B", "data": [{"smiles": "Nc1ncn([C@@H]2O[C@H](CO)[C@@H](O)[C@H]2O)c(=O)n1", "note": "[azacitidine]", "values": [{"measurement": "RFU, KIAA1704 /// LOC100996395", "result": 92.56, "unit": "RFU"}]}]}
